Measurements: the supplement of paper PMC10627819

How the values were obtained:
B. subtilis 168 [1] = assay: fitness (endpoint OD595 vs no drug) (fraction); higher = more growth
Outline: (§1)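 Fitness compares growth at the stationary-phase transition with the robust mean of no-drug control wells, as a ratio of optical densities. The ratio is capped at 1. Wells of 384-well plates held 30 µl, or 55 µl for S. pneumoniae, inoculated at OD595 0.01. Readings at OD595 every 30 min for 14 h at 37 °C were corrected against the first reading.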

S. aureus DSM 20231 [2] = assay: as above
Outline: as §1

S. aureus Newman [3] = assay: as above
Outline: as §1

S. pneumoniae D39V [4] = assay: as above
Outline: as §1

B. subtilis 168 [5] = assay: Bliss interaction score (quartile over a dose matrix) (fitness difference); higher = more antagonism (negative = synergy)
Outline: (§2)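 The Bliss score takes observed fitness and subtracts the expected fitness, calculated as a product of single-drug fitness values. Those single-drug values were inferred from the combination data. Fitness is OD595 at entry into stationary phase divided by the plate's robust no-drug mean, capped at 1, and the score is summarised by quartiles across technical, biological and donor/recipient replicates.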

S. aureus DSM 20231 [6] = assay: as above
Outline: as §2

S. aureus Newman [7] = assay: as above
Outline: as §2

S. pneumoniae D39V [8] = assay: as above
Outline: as §2
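Throughout, for Bliss interaction score (quartile over a dose matrix): first quartile when negative (synergy) and third quartile when positive (antagonism).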
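Throughout, for fitness (endpoint OD595 vs no drug): OD595 on entry to stationary phase over no-drug wells; at most 1.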

O=C(O[C@@H]1Cc2c(O)cc(O)cc2O[C@@H]1c1cc(O)c(O)c(O)c1)c1cc(O)c(O)c(O)c1 [EGCG] + CN[C@@H]1[C@H](O)[C@H](NC)[C@H]2O[C@@]3(O)C(=O)C[C@@H](C)O[C@H]3O[C@@H]2[C@H]1O [Spectinomycin]
fitness
Conditions	B. subtilis 168 [1]	S. aureus DSM 20231 [2]	S. aureus Newman [3]	S. pneumoniae D39V [4]
first compound 6.25 µg/mL, partner 2 µg/mL	0.919	–	–	–
first compound 6.25 µg/mL, partner 4 µg/mL	0.959	–	–	–
first compound 6.25 µg/mL, partner 8 µg/mL	0.942	–	–	–
first compound 12.5 µg/mL, partner 4 µg/mL	–	0.716	0.775	0.918
first compound 12.5 µg/mL, partner 8 µg/mL	0.755	0.841	0.825	0.892
first compound 12.5 µg/mL, partner 16 µg/mL	–	0.783	0.783	0.662
first compound 25 µg/mL, partner 4 µg/mL	–	0.795	0.631	0.884
first compound 25 µg/mL, partner 8 µg/mL	0.351	0.829	0.784	0.858
first compound 25 µg/mL, partner 16 µg/mL	–	0.696	–	0.692
first compound 50 µg/mL, partner 4 µg/mL	–	0.762	–	0.928
first compound 50 µg/mL, partner 8 µg/mL	–	0.778	0.748	0.942
first compound 50 µg/mL, partner 16 µg/mL	–	0.724	–	–

fitness, one replicate
Conditions	first compound 12.5 µg/mL	first compound 25 µg/mL	first compound 50 µg/mL
S. aureus DSM 20231 [2], partner 32 µg/mL	0.732	0.693	0.556
S. aureus DSM 20231 [2], partner 64 µg/mL	0.118	0.0939	0.028
S. aureus Newman [3], partner 32 µg/mL	0.385	0.167	0.0466
S. aureus Newman [3], partner 64 µg/mL	0.0419	0.0446	0.0186

Conditions	Bliss interaction score
B. subtilis 168 [5]	-0.0513
S. aureus DSM 20231 [6]	-0.0655
S. aureus Newman [7]	-0.0777
S. pneumoniae D39V [8]	-0.0456

COc1c(N2C[C@@H]3CCCN[C@@H]3C2)c(F)cc2c(=O)c(C(=O)O)cn(C3CC3)c12 [Moxifloxacin] + C[n+]1ccc(-c2cc[n+](C)cc2)cc1 [Paraquat]
fitness
Conditions	partner 1.25 µg/mL	partner 1.5 µg/mL	partner 2.5 µg/mL	partner 3 µg/mL	partner 5 µg/mL	partner 6 µg/mL
B. subtilis 168 [1], first compound 0.0312 µg/mL	0.0599	–	0.0539	–	0.0449	–
B. subtilis 168 [1], first compound 0.0625 µg/mL	0.044	–	0.0467	–	0.0504	–
B. subtilis 168 [1], first compound 0.125 µg/mL	0.0395	–	0.0537	–	0.0512	–
B. subtilis 168 [1], first compound 2 µg/mL	0.0316	–	0.0333	–	0.0436	–
B. subtilis 168 [1], first compound 4 µg/mL	0.0442	–	0.039	–	0.0413	–
B. subtilis 168 [1], first compound 8 µg/mL	0.0139	–	0.0174	–	0.0265	–
S. aureus DSM 20231 [2], first compound 0.0075 µg/mL	0.818	–	0.831	–	0.824	–
S. aureus DSM 20231 [2], first compound 0.015 µg/mL	0.748	–	0.712	–	0.774	–
S. aureus DSM 20231 [2], first compound 0.03 µg/mL	0.647	–	0.632	–	0.634	–
S. aureus Newman [3], first compound 0.0075 µg/mL	0.706	–	0.73	–	0.727	–
S. aureus Newman [3], first compound 0.015 µg/mL	0.583	–	0.565	–	0.554	–
S. aureus Newman [3], first compound 0.03 µg/mL	0.0423	–	0.0559	–	0.0929	–
S. pneumoniae D39V [4], first compound 0.005 µg/mL	–	0.979	–	0.994	–	0.969
S. pneumoniae D39V [4], first compound 0.01 µg/mL	–	0.966	–	0.957	–	0.939
S. pneumoniae D39V [4], first compound 0.02 µg/mL	–	0.947	–	0.927	–	0.893

fitness, one replicate
Conditions	partner 1.25 µg/mL	partner 1.5 µg/mL	partner 2.5 µg/mL	partner 3 µg/mL	partner 5 µg/mL	partner 6 µg/mL
S. aureus DSM 20231 [2], first compound 0.06 µg/mL	0.684	–	0.7	–	0.699	–
S. aureus DSM 20231 [2], first compound 0.12 µg/mL	0.456	–	0.456	–	0.451	–
S. pneumoniae D39V [4], first compound 0.0037 µg/mL	–	0.906	–	0.857	–	0.896
S. pneumoniae D39V [4], first compound 0.0075 µg/mL	–	0.878	–	0.852	–	0.868
S. pneumoniae D39V [4], first compound 0.015 µg/mL	–	0.886	–	0.866	–	0.868

Conditions	Bliss interaction score
B. subtilis 168 [5]	0.0133
S. aureus DSM 20231 [6]	-0.0639
S. aureus Newman [7]	-0.0625
S. pneumoniae D39V [8]	-0.0615

CCC[C@@H]1C[C@@H](C(=O)N[C@@H]([C@H]2O[C@H](SC)[C@H](O)[C@@H](O)[C@H]2O)[C@H](C)Cl)N(C)C1 [Clindamycin] + COc1c(N2C[C@@H]3CCCN[C@@H]3C2)c(F)cc2c(=O)c(C(=O)O)cn(C3CC3)c12 [Moxifloxacin]
fitness, one replicate
Conditions	first compound 0.0039 µg/mL	first compound 0.0078 µg/mL	first compound 0.0156 µg/mL	first compound 0.0312 µg/mL	first compound 0.0625 µg/mL	first compound 0.125 µg/mL
B. subtilis 168 [1], partner 0.0312 µg/mL	0.73	0.575	0.5	–	–	–
B. subtilis 168 [1], partner 0.0625 µg/mL	0.061	0.05	0.0579	–	–	–
B. subtilis 168 [1], partner 0.125 µg/mL	0.0192	0.0118	0.0291	–	–	–
S. aureus DSM 20231 [2], partner 0.06 µg/mL	–	–	–	0.628	0.628	0.109
S. aureus DSM 20231 [2], partner 0.12 µg/mL	–	–	–	0.515	0.516	0.0784

Conditions	fitness
B. subtilis 168 [1], first compound 0.0625 µg/mL, partner 0.0312 µg/mL	0.0693
B. subtilis 168 [1], first compound 0.0625 µg/mL, partner 0.0625 µg/mL	0.0631
B. subtilis 168 [1], first compound 0.0625 µg/mL, partner 0.125 µg/mL	0.046
B. subtilis 168 [1], first compound 0.0625 µg/mL, partner 2 µg/mL	0.0362
B. subtilis 168 [1], first compound 0.0625 µg/mL, partner 4 µg/mL	0.0401
B. subtilis 168 [1], first compound 0.0625 µg/mL, partner 8 µg/mL	0.0456
B. subtilis 168 [1], first compound 0.125 µg/mL, partner 0.0312 µg/mL	0.0619
B. subtilis 168 [1], first compound 0.125 µg/mL, partner 0.0625 µg/mL	0.0693
B. subtilis 168 [1], first compound 0.125 µg/mL, partner 0.125 µg/mL	0.0534
B. subtilis 168 [1], first compound 0.125 µg/mL, partner 2 µg/mL	0.0368
B. subtilis 168 [1], first compound 0.125 µg/mL, partner 4 µg/mL	0.0309
B. subtilis 168 [1], first compound 0.125 µg/mL, partner 8 µg/mL	0.0299
B. subtilis 168 [1], first compound 0.25 µg/mL, partner 0.0312 µg/mL	0.0478
B. subtilis 168 [1], first compound 0.25 µg/mL, partner 0.0625 µg/mL	0.0597
B. subtilis 168 [1], first compound 0.25 µg/mL, partner 0.125 µg/mL	0.0484
B. subtilis 168 [1], first compound 0.25 µg/mL, partner 2 µg/mL	0.0444
B. subtilis 168 [1], first compound 0.25 µg/mL, partner 4 µg/mL	0.0401
B. subtilis 168 [1], first compound 0.25 µg/mL, partner 8 µg/mL	0.0192
S. aureus DSM 20231 [2], first compound 0.0625 µg/mL, partner 0.0075 µg/mL	0.0874
S. aureus DSM 20231 [2], first compound 0.0625 µg/mL, partner 0.015 µg/mL	0.0867
S. aureus DSM 20231 [2], first compound 0.125 µg/mL, partner 0.0075 µg/mL	0.0621
S. aureus DSM 20231 [2], first compound 0.125 µg/mL, partner 0.015 µg/mL	0.0276
S. aureus DSM 20231 [2], first compound 0.125 µg/mL, partner 0.03 µg/mL	0.0423
S. aureus Newman [3], first compound 0.0312 µg/mL, partner 0.0075 µg/mL	0.63
S. aureus Newman [3], first compound 0.0312 µg/mL, partner 0.015 µg/mL	0.553
S. aureus Newman [3], first compound 0.0625 µg/mL, partner 0.015 µg/mL	0.361
S. aureus Newman [3], first compound 0.0625 µg/mL, partner 0.03 µg/mL	0.251
S. aureus Newman [3], first compound 0.125 µg/mL, partner 0.0075 µg/mL	0.111
S. aureus Newman [3], first compound 0.125 µg/mL, partner 0.015 µg/mL	0.0621
S. aureus Newman [3], first compound 0.125 µg/mL, partner 0.03 µg/mL	0.0456
S. pneumoniae D39V [4], first compound 0.0125 µg/mL, partner 0.0312 µg/mL	0.182
S. pneumoniae D39V [4], first compound 0.0125 µg/mL, partner 0.0625 µg/mL	0.0996
S. pneumoniae D39V [4], first compound 0.0125 µg/mL, partner 0.125 µg/mL	0.0702
S. pneumoniae D39V [4], first compound 0.015 µg/mL, partner 0.005 µg/mL	0.87
S. pneumoniae D39V [4], first compound 0.015 µg/mL, partner 0.01 µg/mL	0.932
S. pneumoniae D39V [4], first compound 0.015 µg/mL, partner 0.02 µg/mL	0.88
S. pneumoniae D39V [4], first compound 0.025 µg/mL, partner 0.0312 µg/mL	0.13
S. pneumoniae D39V [4], first compound 0.025 µg/mL, partner 0.0625 µg/mL	0.107
S. pneumoniae D39V [4], first compound 0.025 µg/mL, partner 0.125 µg/mL	0.067
S. pneumoniae D39V [4], first compound 0.03 µg/mL, partner 0.005 µg/mL	0.778
S. pneumoniae D39V [4], first compound 0.03 µg/mL, partner 0.01 µg/mL	0.798
S. pneumoniae D39V [4], first compound 0.03 µg/mL, partner 0.02 µg/mL	0.744
S. pneumoniae D39V [4], first compound 0.05 µg/mL, partner 0.0312 µg/mL	0.0658
S. pneumoniae D39V [4], first compound 0.05 µg/mL, partner 0.0625 µg/mL	0.0748
S. pneumoniae D39V [4], first compound 0.05 µg/mL, partner 0.125 µg/mL	0.0719
S. pneumoniae D39V [4], first compound 0.06 µg/mL, partner 0.005 µg/mL	0.627
S. pneumoniae D39V [4], first compound 0.06 µg/mL, partner 0.01 µg/mL	0.674
S. pneumoniae D39V [4], first compound 0.06 µg/mL, partner 0.02 µg/mL	0.606

Conditions	Bliss interaction score
B. subtilis 168 [5]	0.041
S. aureus DSM 20231 [6]	0.0751
S. aureus Newman [7]	0.0705
S. pneumoniae D39V [8]	0.0859

O=C(O[C@@H]1Cc2c(O)cc(O)cc2O[C@@H]1c1cc(O)c(O)c(O)c1)c1cc(O)c(O)c(O)c1 [EGCG] + C[n+]1ccc(-c2cc[n+](C)cc2)cc1 [Paraquat]
fitness
Conditions	first compound 6.25 µg/mL	first compound 12.5 µg/mL	first compound 25 µg/mL	first compound 50 µg/mL
B. subtilis 168 [1], partner 1.25 µg/mL	0.912	–	–	–
B. subtilis 168 [1], partner 2.5 µg/mL	0.918	–	–	–
B. subtilis 168 [1], partner 5 µg/mL	0.836	0.691	–	–
S. aureus DSM 20231 [2], partner 1.25 µg/mL	–	0.792	0.774	–
S. aureus DSM 20231 [2], partner 2.5 µg/mL	–	0.767	0.827	0.609
S. aureus DSM 20231 [2], partner 5 µg/mL	–	0.757	0.733	0.56
S. aureus Newman [3], partner 1.25 µg/mL	–	0.709	0.579	–
S. aureus Newman [3], partner 2.5 µg/mL	–	0.691	0.812	–
S. aureus Newman [3], partner 5 µg/mL	–	–	0.796	0.787
S. pneumoniae D39V [4], partner 1.5 µg/mL	–	0.953	≥ 1	0.952
S. pneumoniae D39V [4], partner 3 µg/mL	–	0.971	0.999	0.839
S. pneumoniae D39V [4], partner 6 µg/mL	–	0.91	≥ 1	≥ 1

Conditions	Bliss interaction score
B. subtilis 168 [5]	0.0809
S. aureus DSM 20231 [6]	-0.0973
S. aureus Newman [7]	-0.052
S. pneumoniae D39V [8]	0.0566
